The text below walks through data of patent US8329675B2, “Inhibitors of fatty acid amide hydrolase” (Infinity Pharmaceuticals, Inc., priority 2006, dated 2012).

The first assay concerns the target T1, human FAAH (Homo sapiens, UniProt O00519).
T1 construct: host or cells: COS-7 cells, transient transfection; 13,000 g membrane fraction solubilised in 1% Triton X-100
T1 sequence (O00519 1-579): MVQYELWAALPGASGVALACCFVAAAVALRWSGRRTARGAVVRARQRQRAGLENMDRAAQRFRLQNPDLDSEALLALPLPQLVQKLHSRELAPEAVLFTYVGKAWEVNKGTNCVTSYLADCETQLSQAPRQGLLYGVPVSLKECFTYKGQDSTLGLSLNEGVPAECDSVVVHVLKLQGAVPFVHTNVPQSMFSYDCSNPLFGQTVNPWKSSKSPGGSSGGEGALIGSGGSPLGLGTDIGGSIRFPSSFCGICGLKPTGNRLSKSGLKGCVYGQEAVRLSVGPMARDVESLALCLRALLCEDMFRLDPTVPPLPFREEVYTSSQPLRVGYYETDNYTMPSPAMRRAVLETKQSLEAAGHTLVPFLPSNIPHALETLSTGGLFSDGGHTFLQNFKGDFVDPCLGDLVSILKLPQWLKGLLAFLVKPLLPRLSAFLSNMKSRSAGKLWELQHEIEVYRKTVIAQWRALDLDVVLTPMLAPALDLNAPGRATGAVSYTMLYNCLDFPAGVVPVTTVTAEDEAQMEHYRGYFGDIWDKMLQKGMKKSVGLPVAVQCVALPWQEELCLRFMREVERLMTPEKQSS
Nature of the assay: Human FAAH biochemical inhibition assay (AMC arachidonoyl amide fluorescence). As to conditions: Table 1, human FAAH (no asterisk); read-out: Activity (Ki). Put shortly:
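Solubilized membrane fraction from COS-7 cells transfected with human FAAH, used at a final 0.05 mg/ml in 50 mM Hepes pH 7.5, 1 mM EDTA, 0.2% Triton X-100. Inhibitor pre-incubated 30 min at room temperature; 20 uM final AMC arachidonoyl amide added, reaction run 4 h at room temperature, fluorescence read.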
For `CCCCOc1ccc(B(O)O)c(C)c1` [Compound I-138], the Ki fell in the range of 10 to 1000 nM.
With `OB(O)c1ccoc1` [Compound I-64], the inhibition constant (Ki) was over 1000 nM.
As for `Cc1cc(Cl)cc(B(O)O)c1` [Compound I-20], the Ki lay in the range of 10 to 1000 nM.
Turning to `OB(O)c1ccc(Br)c(F)c1F` [Compound I-34], the Ki lay within 10 to 100 nM.
With `OB(O)c1ccc(OCc2ccc(F)cc2)c(Cl)c1` [Compound I-152], the Ki is under 10 nM.
In the case of `COc1cc(Br)cc(B(O)O)c1` [Compound I-17], the inhibition constant (Ki) was over 1000 nM.
On to `CN(C)c1ccc(B(O)O)cc1` [Compound I-68], for which the inhibitory constant (Ki) was over 1000 nM.
With `OB(O)c1cc(F)cc(C(F)(F)F)c1` [Compound I-13], the Ki is 10 to 100 nM.
On to `Cc1cc(OCc2ccccc2)ccc1B(O)O` [Compound I-134], for which the Ki is 10 to 100 nM.
Take `OB(O)c1ccccc1F` [Compound I-105]: the inhibitory constant (Ki) is 10 to 1000 nM.
On to `O=C(Nc1ccc(B(O)O)cc1)OCc1ccccc1` [Compound I-163], for which the Ki lay in the range of 10 to 100 nM.
The same measure, in the same setting: with `CCOc1ccc(Br)cc1B(O)O` [Compound I-6] the figure was over 1000 nM; with `CCCOc1c(Br)cc(F)cc1B(O)O` [Compound I-8], over 1000 nM.
Still for that read-out and setting: with `OB(O)c1c(F)c(F)c(Br)c(F)c1F` [Compound I-44] the figure was over 1000 nM; with `CCC[C@H]1CC[C@H](c2ccc(B(O)O)cc2)CC1` [Compound I-30], under 10 nM.
In the case of `CC(C)Cc1ccc(B(O)O)cc1` [Compound I-97], the inhibition constant Ki was 10 to 100 nM.
`OB(O)c1cccc2cccnc12` [Compound I-112]: the Ki was over 1000 nM.
With `OB(O)c1ccsc1` [Compound I-92], the Ki was over 1000 nM.
For the molecule `OB(O)c1cc(Cl)cc(Cl)c1` [Compound I-22], the Ki was in the range of 10 to 1000 nM.
In the case of `COc1ccc(Br)cc1B(O)O` [Compound I-12], the inhibition constant Ki is over 1000 nM.
In the case of `OB(O)c1ccc2cc(O)ccc2c1` [Compound I-168], the Ki was 10 to 100 nM.
The same measure, in the same setting: as for `CCCCCc1ccc(B(O)O)cc1` [Compound I-161], the figure is under 10 nM; as for `O=[N+]([O-])c1ccc(B(O)O)cc1` [Compound I-83], 10 to 1000 nM; as for `CC(=O)c1ccc(B(O)O)cc1` [Compound I-85], 10 to 1000 nM.
Turning to `OB(O)c1ccc(F)cc1` [Compound I-72], the Ki was over 1000 nM.
For `OB(O)c1ccsc1Cl` [Compound I-51], the Ki was 10 to 1000 nM.
Same read-out and setting: with `OB(O)c1cncc2ccccc12` [Compound I-62] the figure was over 1000 nM.
On the same count and under the same terms, as for `COc1cc(B(O)O)cc(C(F)(F)F)c1` [Compound I-21], the figure is over 1000 nM; as for `CC(C)Oc1ccc(B(O)O)cc1Cl` [Compound I-35], 10 to 100 nM.

The same assay, now with this note: Table 2, human FAAH (no asterisk); read-out: Activity (Ki).
Take `OB(O)c1ccc(Oc2cccc(Oc3ccc(Cl)cc3)c2)cc1` [II-191]: the Ki was under 10 nM.
On to `CC(OCc1ccc(B(O)O)cc1)c1ccccc1` (stereo not shown) [II-126], for which the Ki was under 10 nM.
`CC(C)OC(=O)c1cccc(Oc2ccc(B(O)O)cc2)c1` [II-236]: the Ki is under 10 nM.
With `O=C(CCc1ccc(B(O)O)c(F)c1)c1ccccc1` [II-27], the inhibition constant (Ki) is under 10 nM.
As to `COc1ccc(Oc2ccc(B3OC(C)(C)C(C)(C)O3)cc2)cc1OC` [II-264], the Ki was under 10 nM.
As to `Cc1sc2ccccc2c1B(O)O` [II-58], the Ki is over 1000 nM.
Take `O=C1c2cc(B(O)O)ccc2CC1Cc1ccccc1` (stereo not shown) [II-25]: the Ki was under 10 nM.
Consider `OB(O)c1ccc(Oc2cccc(F)c2)cc1C(F)(F)F` [II-202], for which the Ki lay within 10 to 100 nM.
Consider `OB(O)c1c(F)cc(Oc2cccc(F)c2)cc1F` [II-195], for which the Ki was under 10 nM.
Regarding `COc1ccc(Oc2ccc(B(O)O)cc2)cc1Cl` [II-252], the Ki is under 10 nM.
In the case of `C[C@@H](COc1ccc(B(O)O)c(F)c1)c1ccccc1` [II-139], the Ki was under 10 nM.
With `CN(CCc1ccccc1)C(=O)c1ccc(B(O)O)cc1` [II-229], the Ki is under 10 nM.
For the molecule `C[N+]12CC(=O)O[B-]1(c1ccc(-c3cccc(F)c3)cc1F)OC(=O)C2` (stereo not shown) [II-86], the Ki is under 10 nM.
For `c1ccc(B2CCCO2)cc1` [II-186], the Ki is over 1000 nM.
For `OB(O)c1ccc(OCCCCc2ccccc2)cc1` [II-165], the Ki is 10 to 100 nM.
On the same count and under the same terms, as for `O=C1c2ccc(B(O)O)cc2CC1Cc1ccccc1` (stereo not shown) [II-29], the figure is under 10 nM; as for `Cc1cc(COc2ccc(B(O)O)cc2)ccc1F` [II-267], 10 to 100 nM; as for `OB(O)c1ccc(Oc2ccc(F)cc2)cc1` [II-290], under 10 nM.
With `OB(O)c1ccc(OC2CCCCC2)cc1` [II-237], the Ki was under 10 nM.
Take `OB(O)c1ccc2c(c1)Cc1ccccc1-2` [II-30]: the Ki lay within 10 to 100 nM.
The same measure, in the same setting: as for `OB(O)c1ccc(OCCc2cccc(Cl)c2)cc1F` [II-61], the figure is under 10 nM; as for `CC(C)(C)OC(=O)n1cncc1COc1ccc(B2OC(C)(C)C(C)(C)O2)c(F)c1` [II-133], under 10 nM; as for `CCOc1ccc(CCOc2ccc(B(O)O)c(F)c2)cc1` [II-50], under 10 nM.
Take `CN(C)c1ccc(/N=N/c2ccc(B3OC(C)(C)C(C)(C)O3)cc2)cc1` [II-185]: the Ki is 10 to 1000 nM.
Regarding `OB(O)Cc1ccc(-c2ccccc2)cc1` [II-99], the Ki was over 1000 nM.
As to `OB(O)c1ccc(Oc2cccc(OC(F)(F)F)c2)cc1` [II-244], the Ki is under 10 nM.
On the same count and under the same terms, with `OB(O)c1ccc(Oc2cccc(F)c2)c(F)c1F` [II-194] the figure was under 10 nM.
The same measure, in the same setting: with `CC(=O)Oc1ccc(-c2ccc(B(O)O)cc2)cc1` [II-299] the figure was 10 to 100 nM.
For `CC(C)(C)c1ccc(-c2ccc(B(O)O)cc2)cc1` [II-296], the Ki was in the range of 10 to 1000 nM.
Consider `CC(=O)c1ccc(-c2ccc(B(O)O)cc2)cc1` [II-295], for which the Ki was under 10 nM.
For the molecule `Cc1cc(COC(=O)c2ccc(B(O)O)cc2)ccc1F` [II-247], the Ki lay in the range of 10 to 100 nM.
With `Cc1ccc2scc(B(O)O)c2c1` [II-65], the Ki fell in the range of 10 to 1000 nM.
As to `OB(O)c1ccc(Oc2ccccc2)cc1` [II-317], the Ki was under 10 nM.
For the molecule `O=C(CCCc1ccc(B(O)O)cc1)c1ccccc1` [II-76], the Ki was under 10 nM.
`OB(O)c1ccc(Oc2cccc(F)c2)cc1Cl` [II-207]: the inhibition constant Ki is under 10 nM.
With `Cc1ncc(-c2ccc(B(O)O)cc2)s1` [II-45], the Ki was over 1000 nM.
Same read-out and setting: with `CN(C)c1ccc(/N=N/c2ccc(B(O)O)cc2)cc1` [II-182] the figure was 10 to 100 nM; with `OB(O)c1ccc(OCCc2cccc(OCCCc3ccccc3)c2)cc1F` [II-17], under 10 nM; with `OB(O)c1ccc(OCCCc2ccccc2)cc1F` [II-156], under 10 nM.
In the case of `CN(C)CCN(Cc1ccccc1)C(=O)C(Oc1ccc(B(O)O)cc1)c1ccccc1` (stereo not shown) [II-214], the Ki is over 1000 nM.
As for `CN(C)[C@@H](COc1ccc(B(O)O)c(F)c1)Cc1ccccc1` [II-103], the Ki was over 1000 nM.
Turning to `OB(O)c1ccc(-c2cccc3ccccc23)cc1F` [II-16], the inhibition constant (Ki) fell in the range of 10 to 100 nM.
On to `[O-][S+](Cc1ccc(B(O)O)cc1)c1ccccc1` (stereo not shown) [II-232], for which the Ki fell in the range of 10 to 1000 nM.
With `OB(O)c1ccc(Oc2cccnc2)cc1` [II-293], the Ki is under 10 nM.
Regarding `CN(Cc1ccccc1)[C@@H](COc1ccc(B(O)O)c(F)c1)Cc1ccccc1` [II-106], the inhibitory constant (Ki) lay in the range of 10 to 1000 nM.
The same measure, in the same setting: as for `CC(C)(C)OC(=O)N1CCC[C@H]1COCc1ccc(B(O)O)cc1` [II-107], the figure is 10 to 100 nM; as for `OB(O)c1ccc(COCC2CCCCO2)cc1` (stereo not shown) [II-102], 10 to 100 nM; as for `CC1(C)OB(c2ccc(OCCCCc3ccccc3)cc2)OC1(C)C` [II-166], 10 to 100 nM.
In the case of `OB(O)c1ccc(Oc2ccc(F)c(F)c2)cc1` [II-261], the Ki was under 10 nM.
For the molecule `OB(O)c1ccc(-c2cccc(F)c2)cc1F` [II-11], the Ki is under 10 nM.
Same read-out and setting: with `OB(O)c1ccc(-c2ccc(F)cc2)cc1F` [II-306] the figure was under 10 nM.
Turning to `CN(Cc1ccccc1)C(=O)c1ccc(B(O)O)cc1` [II-163], the Ki lay within 10 to 100 nM.
On to `CCCCNC(=O)c1cccc(Oc2ccc(B(O)O)cc2)c1` [II-220], for which the Ki was under 10 nM.
On to `CN(C)c1cc(B(O)O)cc(C(=O)O)c1` [II-88], for which the Ki is over 1000 nM.
As for `Nc1cc(Oc2cccc(F)c2)ccc1B(O)O` [II-162], the Ki was over 1000 nM.
Turning to `CN(C(=O)c1ccccc1)c1ccc(B(O)O)cc1` [II-235], the Ki was 10 to 1000 nM.
Regarding `[O-][S+](Cc1ccc(B(O)O)c(F)c1)c1ccccc1` (stereo not shown) [II-79], the Ki was over 1000 nM.
In the case of `OB(O)c1ccc(OCCCOc2ccccc2)cc1` [II-128], the Ki was under 10 nM.
For the molecule `O=c1ccccn1CCCOc1ccc(B(O)O)cc1` [II-122], the Ki was 10 to 100 nM.
For the molecule `CN(C)C(=O)C(Oc1ccc(B(O)O)cc1)c1ccccc1` (stereo not shown) [II-219], the Ki was in the range of 10 to 1000 nM.
With `COC(=O)c1cc(Oc2cccc(F)c2)ccc1B(O)O` [II-183], the Ki lay within 10 to 100 nM.
Still for that read-out and setting: with `OB(O)c1ccc2c(c1)CCC(OCc1ccccc1)C2` (stereo not shown) [II-95] the figure was under 10 nM.
